Results published in article PMC4076079, “Selective inhibitors of a PAF biosynthetic enzyme lysophosphatidylcholine acyltransferase 2” (Journal of Lipid Research, 2014).

Tested on: mouse peritoneal macrophages
Assay: PAF and lyso-PAF production in LPS-primed, A23187-stimulated peritoneal macrophages
Type: cell-based
Conditions: 5 μM A23187 5 min
Procedure: RAW-mLPCAT2 cells and peritoneal macrophages were seeded in 24-well plates (4 × 10^6 cells/well) for 24 or 2 h, respectively, before treatment. RAW-mLPCAT2 cells were stimulated with 5 μM A23187 for 5 min after a 1 h treatment with the compounds. Peritoneal macrophages were preincubated with 100 ng/ml LPS for 18 h, treated with the compounds for 1 h, and stimulated with 5 μM A23187 for 5 min. To analyze cellular PAF levels, lipids were extracted with 500 μl methanol containing d4-PAF and d4-lyso-PAF as internal standards. Each sample was submitted to solid phase extraction using an Oasis HLB 96-well cartridge cluster (Waters), and PAF and lyso-PAF were measured by LC-MS/MS as previously described ([13]).
Chromatography was performed using an Acquity™ Ultra-performance LC system (Waters) coupled to a TSQ Vantage triple stage quadrupole mass spectrometer (Thermo Scientific) with a HESI-II electrospray ionization source ([13]). Phospholipids were separated on BEH C8 columns (1.7 μm, 2.1 × 30 mm or 1 × 100 mm; Waters) for the analysis of assay products or the composition of cellular PAF and lyso-PAF, respectively. The mobile phase contained 20 mM aqueous ammonium bicarbonate and acetonitrile. The extracts from peritoneal macrophages were separated on a Kinetex C8 column (1.7 μm, 2.1 × 100 mm; Phenomenex, Torrance, CA) by a gradient elution with 0.05% formic acid-water and acetonitrile, using the Nexera X2 system and LCMS-8080 mass spectrometer (Shimadzu, Kyoto, Japan) ([13]). Lyso-PAF, d4-PAF, and d31-DPPC were identified by the choline fragment (m/z 184) as a product ion of selected reaction monitoring in the positive ion mode. Nonlabeled PAF and d4-16:0/20:4 alkyl-PC were determined by fatty acid anions of sn-2 composition (m/z 59 and 303, respectively) in the negative ion mode. […] Signal intensities were determined relative to the internal standard or as the percentage of the positive control.
The effect of TSI-01 on PAF and lyso-PAF biosynthesis was evaluated using thioglycollate-elicited mouse peritoneal macrophages. […]

For CC(C)OC(=O)c1ccc(N2C(=O)C(Cl)=C(Cl)C2=O)cc1 [TSI-01, propan-2-yl 4-(3,4-dichloro-2,5-dioxopyrrol-1-yl)benzoate], which PAF levels (60 μM TSI-01, LPS 18 h, compound 1 h) is on record?
The PAF levels was “below the detection limit”.

What about the “PAF levels in A23187-stimulated cells” value (LPS 100 ng/ml 18 h, TSI-01 1 h) of the same molecule?
Its value is “decreased”.

And the lyso-PAF levels (LPS 100 ng/ml 18 h, TSI-01 1 h)?
The lyso-PAF levels was “not changed”.
